Laboratory results published in patent publication US20070142396A1, “Treatment of pain with 1-[3-[4-(3-chlorophenyl)-1-piperazinyl]propyl]-5-methoxy-3,4-dihydro-2(1H)-quinolone or salt thereof” (Vela Pharmaceuticals, Inc., priority 2005, published 2007).

Tested on: rats with L5 spinal nerve ligation (SNL model)
Experiment: Spinal nerve ligation (L5) neuropathic pain model, von Frey filaments, dose range (Example 5)
Assay type: in vivo, rat
From the text: The spinal nerve ligation (SNL) model of neuropathic pain was produced in all rats as described by Kim and Chung (Pain, 50, 355-363, 1992). Briefly, under gaseous anesthesia using halothane (3% for induction and 1.5% for maintenance) in oxygen, the left L5 spinal nerve was exposed by removing the paraspinal muscles and the transverse process of the L6 vertebra. The very proximal portion of the L5 spinal nerve was tightly ligated with 6-0 silk suture. The wounds were closed and anesthesia was discontinued. Rats were kept on a heated blanket until they had completely recovered from anesthesia.
Behavioral tests were conducted in a non-blind fashion. The foot withdrawal threshold to mechanical stimuli applied to the paw (mechanical threshold) was measured, as an indicator of mechanical sensitivity of the affected paw. The foot withdrawal threshold was measured using von Frey filaments. It is generally thought that von Frey filaments are more sensitive than electronic von Frey probes for measuring tactile stimulation. The mechanical thresholds were measured by using the “up-and-down” method (Chaplan et al., J. Neurosci. Methods 53(1):55-63, 1994), following the procedures described in previous studies (Park et al., Pain 87(2):171-179, 2000; Xie et al., J. Pain 2(5):270-278, 2001; Baik et al., J. Pain 4:212-221, 2003). In brief, rats were placed in a transparent plastic box on a metal wire mesh floor. To determine the threshold stiffness required for 50% paw withdrawal, a series of eight von Frey filaments with approximately equal logarithmic incremental (0.22) von Frey values (3.65, 3.87, 4.10, 4.31, 4.52, 4.74, 4.92, and 5.16) were used. Von Frey (VF) values are logarithmically related to gram (g) values (VF=log (10,000×g)). The chosen von Frey values are therefore equivalent to 0.45, 0.74, 1.26, 2.04, 3.31, 5.50, 8.32, and 14.45 in gram value, respectively. Starting with filament 4.31, von Frey filaments were applied perpendicularly to the ventral surface of the proximal part of the third or fourth toe for 2-3 seconds. Whenever a positive response to a stimulus occurred (paw withdrawal), the next smaller von Frey hair was applied. Whenever a negative response occurred, the next larger one was applied. The test was continued until the response of six stimuli after the first change in response had been obtained or the test had reached either end of the spectrum of the von Frey set.
The 50% threshold value was then calculated using Dixon's formula (Dixon, Ann. Rev. Phar. Tox. 20:441-462, 1980): 50% threshold=X+kd, where X is the value of the final von Frey hair used (in log units), k is the tabular value for the pattern of positive/negative responses, and d is the mean difference between stimuli in log units (0.22). In the cases where continuous positive or negative responses were observed all the way out to the end of the stimulus spectrum, values of 3.54 or 5.27 were assigned, respectively, by assuming a value of (−/+) 0.5 for k in these cases (Dixon, supra, 1980). Outcome of behavioral data were expressed as von Frey values (maximum range from 3.54 to 5.27) and plotted in a linear scale.
Data were expressed as the mean±standard errors of mean (SEM). Differences in mechanical thresholds at various times after injections were tested using two-way (time and group factors) analysis of variance (ANOVA), followed by the Duncan's post-hoc test for multiple comparisons. Statistical analyses were done using the SAS® software program (SAS Institute Inc, Cary, N.C.). Two-tailed p-values<0.05 were considered to be significant.
This experiment was conducted on 8 rats in a Latin-square design examining a dose response of OPC-14523. Gabapentin was prepared at 10 mg/ml in 0.5% tragacanth and administered at 100 mg/kg p.o. Behavioral tests were conducted in a blind fashion twice (1 day and 1 hour) before as well as 1 and 4 days after the neuropathic surgery. […] These 8 rats were randomly divided into 6 groups of 1-2 rats. […]

COc1cccc2c1CCC(=O)N2CCCN1CCN(c2cccc(Cl)c2)CC1 [OPC-14523, 1-[3-[4-(3-chlorophenyl)-1-piperazinyl]propyl]-5-methoxy-3,4-dihydro-2(1H)-quinolone]
effect on mechanical threshold (10 mg/kg oral): neither vehicle nor OPC-14523 at 10 mg/kg produced significant changes | effect on mechanical threshold (30 mg/kg oral): statistically significant increase | level of response compared with gabapentin 100 mg/kg p.o. (30 mg/kg oral): comparable to that of gabapentin | effect on mechanical threshold (60 mg/kg oral): statistically significant increase | level of response compared with gabapentin 100 mg/kg p.o. (60 mg/kg oral): comparable to that of gabapentin | effect on mechanical threshold (100 mg/kg oral): statistically significant increase | level of mechanical threshold reached (100 mg/kg oral, exceeding the response induced by gabapentin): about the level observed prior to the ligature surgery
